Results reported in article PMC9706920, “Aryloxypropanolamine targets amyloid aggregates and reverses Alzheimer-like phenotypes in Alzheimer mouse models” (Alzheimer's Research & Therapy, 2022).

Experiments:
Aβ(1–42) = biological target: T1, Aβ(1–42) (Homo sapiens, UniProt P05067); test: ThT fluorescence Aβ(1–42) aggregation inhibition assay; format: biochemical; details: compounds at 0.5, 5, 50, 500 μM co-incubated with monomeric Aβ(1–42) 25 μM, 37°C, 3 days; concentration of the printed value not stated
T1 construct: Synthesized monomeric Aβ(1–42), […]; […]; IA; made in house; host or cells: chemical synthesis (Fmoc solid phase peptide synthesis)
T1 sequence (P05067 672-713 limits assumed): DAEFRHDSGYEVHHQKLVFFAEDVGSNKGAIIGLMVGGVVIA
Method: (§1) ThT fluorescence was used to assess the in vitro inhibition of Aβ(1–42) and disaggregation of Aβ(1–42), Aβ(1–40), Aβ(pE3-42), recombinant tau K18, and tau repeats R1, R2, R3, R4 by YIAD compounds. In house synthetic Aβ(1–42) was dissolved in DMSO (1 mM, 100% DMSO) and diluted to 20-fold in deionized water to make 50 μM Aβ(1–42) stocks (5% DMSO). YIAD compounds were first dissolved in DMSO (100 mM, 100% DMSO) and serially diluted with deionized water to make YIAD stocks with concentrations of 1, 10, 100, and 1000 μM (10% DMSO). For the Aβ(1–42) inhibition assay, monomeric Aβ(1–42) stocks and YIAD stocks were co-incubated at 37°C for 3 days. For Aβ(1–42) disaggregation assay, monomeric Aβ(1–42) stocks were preincubated at 37°C for three days to form Aβ(1–42) aggregates, and subsequently, YIAD stocks were added for an additional 3 days. For Aβ(1-40) disaggregation assays, Aβ(1–40) (50 μM, 5% DMSO) was preincubated at 37°C for 3 days to induce aggregation, and co-incubated with YIAD001 and YIAD002 for an additional 3 days. For Aβ(pE3-42) disaggregation assays, in house synthetic Aβ(pE3-42) (50 μM, 5% DMSO) was preincubated at 37°C for 1 day and co-incubated with YIAD002 for an additional 3 days. For tau K18 disaggregation assay, recombinant tau K18 fragments (35 μM) were dissolved in PBS with 0.1 mg/mL of heparin and 100 μM of DTT, then pre-aggregated at 37°C for 3 days. Then, YIAD stocks were added to aggregated K18 fragments for an additional 3 days. For tau repeat disaggregation assays, tau repeats (R1, R2, R3, R4) (35 μM) were dissolved in PBS with 0.1 mg/mL of heparin and 100 μM of DTT, then pre-aggregated at 37°C for 1 day. Then, YIAD002 was added to aggregated repeats for an additional 3 days. Prior to fluorescence intensity measurement, ThT solution (5 μM) was prepared by dissolving ThT, purchased from Sigma-Aldrich (MO, USA) in 50 mM glycine buffer (pH 8.5). To quantify the effect of inhibition and disaggregation, 25 μL of all samples and 75 μL of ThT solution were loaded into a half-area 96-well black plate in triplicate.

Aβ(1–42) aggregates [1] = biological target: T2, Aβ(1–42) aggregates (Homo sapiens, UniProt P05067); test: ThT fluorescence Aβ(1–42) disaggregation assay; format: biochemical; details: for Decrease of fibrillar Aβ(1–42) aggregates (ThT fluorescence): Aβ(1–42) 25 μM pre-aggregated 37°C 3 days, compound added for additional 3 days, concentration of the printed value not stated; for EC50: pre-aggregated Aβ(1–42) 25 μM, 3 + 3 days, 37°C
T2 construct: made in house; host or cells: chemical synthesis (Fmoc solid phase peptide synthesis)
T2 sequence (P05067 672-713 limits assumed): as above
Method: as §1

Aβ(1–42) aggregates [2] = biological target: T2, Aβ(1–42) aggregates; test: In vitro dot blot assay with oligomer-specific antibody A11; format: biochemical; details: Aβ(1–42) disaggregation samples, Fig. S1
Method: To analyze total and oligomeric amyloid levels, protein samples (12 μg in 2 μL) and prepared in vitro disaggregation assay samples (2 μL) were directly blotted on nitrocellulose membranes. After blocking with 5% skim milk in TBS-T, the membranes were probed with anti-6E10 antibody (1:1,000, Biolegend 803003) and anti-A11 antibody (1:2000, Invitrogen AHB0052) at 4°C overnight. HRP-conjugated goat anti-mouse antibody (1:10,000, Bethyl Laboratories A90-116P) and anti-rabbit secondary antibody (1:10,000, Bethyl Laboratories A120-101P) were used for 6E10 and A11, respectively. Proteins were detected using an ECL kit (Thermo Fisher Scientific, USA). Membranes were washed with TBS-T in between steps, three times for 10 min.

5XFAD mice = test: Western blot of brain lysates of 5XFAD mice; format: in vivo, mouse; details: 50 mg/kg/day, 5 weeks
Method: To test the in vivo efficacy of YIAD001 and YIAD002, female 5XFAD mice (n = 25) and female wildtype mice (n = 7) were assessed at the age of 4.5 months. YIAD compounds were dissolved in DMSO and diluted in drinking water to a final concentration of 50 mg/kg/day (5% DMSO, 5% Tween) for oral administration. The three compounds, YIAD001, YIAD002, and YIAD003, were freely administered via drinking water to 4.5-month-old 5XFAD mice (n = 6 for each group) for 5 weeks. As a control, 5% DMSO, 5% Tween in drinking water was provided ad libitum to littermate 5XFAD mice (n = 7) and wildtype mice (n = 7) for 5 weeks.
After the administration period, the mice were deeply anaesthetized with 4% avertin through intraperitoneal injection and transcardially perfused with 0.9% saline. Subsequently, the mice were sacrificed for brain excision. Each collected brain was divided through the mid-sagittal section; the hippocampal and cortical regions were dissected from one half and stored at −80°C for subsequent brain lysates, while the other half was immersed in 4% paraformaldehyde (pH 7.4) for 24 h and 30% sucrose for 48 h at 4°C and subsequently deep-froze at −80°C for immunohistochemistry.
Isolated cortical and hippocampal tissue samples were homogenized in ice-cold RIPA buffer with protease inhibitor cocktail and phosphatase inhibitor cocktail. Lysed tissues were incubated in ice for 30 min and subsequently centrifuged at 14,000 rpm at 4°C for 30 min. The supernatants of the brain lysates were collected and soluble protein concentrations were quantified with the Pierce BCA protein assay kit (Thermo Fisher Scientific, USA).
Western blot analysis was performed to assess YIAD002-induced alterations of protein biomarkers in 5XFAD mice brain lysates. Twenty micrograms of lysate samples were loaded onto 12% tris-tricine gels, separated by SDS-PAGE, and transferred to nitrocellulose membranes. Membranes were blocked by 5% skim milk or 5% BSA in TBS-T. The following primary antibodies were used for immunoblotting: anti-6E10 for APP (1:1000, Biolegend 803003), anti-AT8 (1:1000, Invitrogen MN1020), anti-Tau (1:1000, Santa Cruz SC390476), anti-ionized calcium-binding adapter molecule (Iba1) (1:1000, CST, 17198S), anti-glial fibrillar acidic protein (GFAP) (1:2000, Milipore AB5541), anti-postsynaptic density protein 95 (PSD95) (1:1000, CST 3450S), anti-synaptophysin (1:1000, Milipore MAB5258), and anti-β-Actin (1:10,000, Milipore MAB1501). Membranes were incubated with primary antibodies at 4°C overnight and probed with HRP-conjugated IgG antibodies (1:10,000) in RT for an hour. Proteins were detected using an ECL kit (Thermo Fisher Scientific, USA). Membranes were washed with TBS-T in between steps, three times for 10 min.

Compound	Inhibition of Aβ(1–42) fibrillation (ThT fluorescence) (Aβ(1–42))	Decrease of fibrillar Aβ(1–42) aggregates (ThT fluorescence) (Aβ(1–42) aggregates [1])	EC50 (Aβ(1–42) aggregates [1])	A11-detected amyloid oligomers, in vitro disaggregation (Aβ(1–42) aggregates [2])	Cortical and hippocampal APP levels (5XFAD mice)	Cortical total tau levels (5XFAD mice; vs vehicle)	Increase of cortical PSD95 levels (5XFAD mice; vs vehicle)	Increase of cortical synaptophysin levels (5XFAD mice; vs vehicle)	Reduction of cortical Iba1 levels (5XFAD mice; vs vehicle)	Reduction of cortical phosphorylated tau (AT8) (5XFAD mice; vs vehicle)	melting point	Reduction of GFAP expression (5XFAD mice; cortical lysates, vs vehicle)
CCC(C)(C)c1ccc(OCC(O)CN2CCOCC2)c(C(C)(C)CC)c1.Cl (centres unmarked) [YIAD001, 4-(3-(2,4-Di-tert-pentylphenoxy)-2-hydroxypropyl)morpholin-4-ium chloride]	82.55%	82.61%	91.8 µM	dissociate Aβ(1–42) aggregates	did not induce significant shift	not affected	44.59%	38.68%	26.08%	did not affect	192.5 to 193.1 °C	–
CCC(C)(C)c1ccc(OCC(O)CN2CCCC2)c(C(C)(C)CC)c1.Cl (centres unmarked) [YIAD002, 1-(3-(2,4-Di-tert-pentylphenoxy)-2-hydroxypropyl)pyrrolidin-1-ium chloride]	98.15%	99.94%	16.9 µM	dissociate Aβ(1–42) aggregates	did not induce significant shift	not affected	51.97%	57.47%	32.11%	35.29%	179.8 to 180.7 °C	32.76%
